Data as given in patent publication US20200031778A1, “NOVEL 5-SUBSTITUTED IMIDAZOLYLMETHYL DERIVATIVES” (Bayer CropScience Aktiengesellschaft, priority 2016, published 2020).

Assay: Log P by HPLC on reversed phase columns (EEC directive 79/831 Annex V.A8; methods [a], [b], [c])
Assay type: physicochemical
Details: for chromatographic logP: reversed phase HPLC column
Description: Measurement of Log P values was performed according to EEC directive 79/831 Annex V.A8 by HPLC (High Performance Liquid Chromatography) on reversed phase columns with the following methods: • ^[a] Log P value is determined by measurement of LC-UV, in an acidic range, with 0.1% formic acid in water and acetonitrile as eluent (linear gradient from 10% acetonitrile to 95% acetonitrile). • ^[b] Log P value is determined by measurement of LC-UV, in a neutral range, with 0.001 molar ammonium acetate solution in water and acetonitrile as eluent (linear gradient from 10% acetonitrile to 95% acetonitrile). • ^[c] Log P value is determined by measurement of LC-UV, in an acidic range, with 0.1% phosphoric acid and acetonitrile as eluent (linear gradient from 10% acetonitrile to 95% acetonitrile).
If more than one Log P value is available within the same method, all the values are given and separated by “+”.
Calibration was done with straight-chain alkan2-ones (with 3 to 16 carbon atoms) with known Log P values (measurement of Log P values using retention times with linear interpolation between successive alkanones). Lambda-max-values were determined using UV-spectra from 200 nm to 400 nm and the peak values of the chromatographic signals.

LogP	SMILES	other results
2.82^[a]	N#Cc1cncn1CC(O)(c1cc(Br)cc(Br)c1)C1(F)CC1 (stereo not drawn) [I-469]	–
2.46^[a]	N#Cc1cncn1CC(O)(c1ccc(F)cc1C(F)(F)F)C1(F)CC1 (stereo not drawn) [I-382]	–
2.21^[a]	N#Cc1cncn1CC(O)(c1cccc(Cl)c1F)C1(F)CC1 (stereo not drawn) [I-558]	–
2.34^[a]	N#Cc1cncn1CC(O)(c1cc(F)c(F)c(F)c1)C1(F)CC1 (stereo not drawn) [I-500]	–
3.55^[a]	C[Si](C)(C)CC(O)(Cn1cncc1C#N)c1ccc(C(F)(F)F)cc1 (stereo not drawn) [I-269]	–
1.31^[a]	N#Cc1cncn1CC(O)c1ccccc1F (stereo not drawn) [I-139]	–
2.80^[a]	CC(O)(Cn1cncc1C#N)c1cnc(Oc2ccc(C(F)F)cc2)cc1C(F)(F)F (stereo not drawn) [I-341]	–
2.43^[a]	N#Cc1cncn1CC(O)(c1ccc(Br)cc1F)C1(F)CC1 (stereo not drawn) [I-403]	–
2.98^[a]	N#Cc1cncn1CC(O)(c1ccc(C(F)(F)F)cc1Cl)C1CC1 (stereo not drawn) [I-418]	–
2.73^[a]	CCC(C)C(O)(Cn1cncc1C#N)c1ccc(Cl)cc1 (single isomer, unassigned) [I-325]	–
2.54^[a]	OC(Cn1cncc1Cl)c1ccc(Oc2ccc(Cl)cc2)cc1Br (stereo not drawn) [I-23]	–
2.59^[a]	N#Cc1cncn1CC(O)c1ccc(Oc2ccc(Cl)nc2)cc1C(F)(F)F (stereo not drawn) [I-10]	–
2.15^[a]	N#Cc1cncn1CC(O)(c1c(F)ccc(F)c1Cl)C1(F)CC1 (stereo not drawn) [I-567]	–
2.30^[a]	CC(O)(Cn1cncc1F)c1cnc(Oc2ccc(Cl)cc2)cc1C(F)(F)F (stereo not drawn) [I-240]	–
1.98^[a]	C=CCC(O)(Cn1cncc1C#N)C1(Cl)CC1 (stereo not drawn) [I-669]	–
3.52^[a]	N#Cc1cncn1CC(O)c1ccc(Oc2ccc(C(F)(F)F)cc2)cc1C(F)(F)F (stereo not drawn) [I-53]	–
2.90^[a]	N#Cc1cncn1CC(O)(CC1CC1)c1ccc(C(F)(F)F)cc1Br (stereo not drawn) [I-436]	–
3.39^[a]	CC(C)(C)c1ccc(C#CC(O)(Cn2cncc2C#N)C2(F)CC2)cc1 (stereo not drawn) [I-372]	–
2.35^[a]	CC(C)C(O)(Cn1cncc1C#N)c1ccc(F)cc1F (stereo not drawn) [I-419]	–
3.46^[a]	N#Cc1cncn1CC(O)c1ccc(Oc2ccc(Br)cc2)cc1C(F)(F)F (stereo not drawn) [I-36]	–
3.17^[a]	CC(C)(C)CC(O)(Cn1cncc1C#N)c1ccccc1Cl (stereo not drawn) [I-309]	–
2.37^[a]	CC1(C(O)(Cn2cncc2C#N)c2ccc(F)cc2F)CC1 (stereo not drawn) [I-440]	–
2.08^[a]	N#Cc1cncn1CC(O)(C#CCC(Cl)CCl)C1(F)CC1 (stereo not drawn) [I-604]	–

LogP	SMILES	other results
3.54^[a]	CCC(=O)OC(Cn1cncc1F)c1ccc(Oc2ccc(Cl)cc2)cc1C(F)(F)F (stereo not drawn) [I-105]	–
2.97^[a]	CC(C)(C)C(O)(Cn1cncc1C#N)c1ccc(F)c(Br)c1 (stereo not drawn) [I-509]	–
2.76^[a]	N#Cc1cncn1CC(O)(c1ccc(Cl)c(Cl)c1F)C1(Cl)CC1 (stereo not drawn) [I-630]	–
2.44^[a]	CC(C)(C)CC(O)(Cn1cncc1C#N)C1(F)CC1 (stereo not drawn) [I-374]	–
–	N#Cc1cncn1CC(O)(C=CC1CCCCC1)C1(Cl)CC1 (stereo not drawn) [I-663, 1-[2-(1-chlorocyclopropyl)-4-cyclohexyl-2-hydroxybut-3-en-1-yl]-1H-imidazole-5-carbonitrile]	chromatographic logP (method [a], HPLC on reversed phase columns): 3.48
2.37^[a]	N#Cc1cncn1CC(O)(c1ccc(F)c(F)c1F)C1(Cl)CC1 (stereo not drawn) [I-626]	–
3.79^[a]	COC(Cn1cncc1C#N)c1ccc(Oc2ccc(Br)cc2)cc1F (stereo not drawn) [I-55]	–
3.39^[a]	C[Si](C)(C)CC(O)(Cn1cncc1C#N)c1ccccc1Cl (stereo not drawn) [I-306]	–
3.35^[a]	CC(C)(C)CC(O)(Cn1cncc1C#N)c1ccc(C(F)(F)F)cc1 (stereo not drawn) [I-272]	–
2.34^[a]	N#Cc1cncn1CC(O)(CC1CC1)c1c(F)cc(F)cc1F (stereo not drawn) [I-511]	–
–	COc1ccc(Oc2ccc(C(=O)Cn3cncc3Cl)c(Cl)n2)c(Cl)c1 [IX-24]	chromatographic logP (method [a]: LC-UV, acidic range, 0.1% formic acid in water and acetonitrile as eluent (linear gradient from 10% to 95% acetonitrile)): 2.64
2.54^[a]	N#Cc1cncn1CC(O)(c1cc(Cl)cc(F)c1F)C1(Cl)CC1 (stereo not drawn) [I-611]	–
2.73^[a]	C/C=C(\C)C(O)(Cn1cncc1C#N)c1ccc(Cl)cc1F (stereo not drawn) [I-397]	–
2.49^[a]	N#Cc1cncn1CC(O)(c1c(F)cc(F)cc1Br)C1(Cl)CC1 (stereo not drawn) [I-566]	–
3.19^[a]	CCCC(O)(Cn1cncc1C#N)c1ccc(Br)cc1Cl (stereo not drawn) [I-423]	–
3.50^[a]	C[Si](C)(C)CC(O)(Cn1cncc1C#N)c1ccccc1Br (stereo not drawn) [I-307]	–
3.15^[a]	N#Cc1cncn1CC(O)c1ccc(Oc2ccc(Cl)cc2)nc1C(F)(F)F (stereo not drawn) [I-124]	–
2.46^[a]	N#Cc1cncn1CC(O)c1ccc(Oc2ccc(Br)nc2)nc1C(F)(F)F (stereo not drawn) [I-154]	–
2.60^[a]	CC(C)C(O)(Cn1cncc1C#N)c1ccc(F)cc1Cl (stereo not drawn) [I-425]	–
2.80^[a]	N#Cc1cncn1CC(O)c1cnc(Oc2ccc(C(F)F)cc2)cc1C(F)(F)F (stereo not drawn) [I-115]	–
2.49^[a]	N#Cc1cncn1CC(O)(c1ccc(Cl)cc1)C1(Cl)CC1 (stereo not drawn) [I-232]	–
1.53^[a]	N#Cc1cncn1CC(O)c1ccc(Cl)cc1 (stereo not drawn) [I-112]	–
3.41^[a]	CCCC(C)C=CC(O)(Cn1cncc1C#N)C1(Cl)CC1 (stereo not drawn) [I-689]	–

LogP	SMILES	other results
2.17^[a]	N#Cc1cncn1CC(O)(c1ccc(F)c(F)c1)C1(F)CC1 (stereo not drawn) [I-445]	–
2.51^[a]	OC(Cn1cncc1Cl)c1ccc(Oc2ccc(Cl)cc2)nc1C(F)(F)F (stereo not drawn) [I-34]	–
1.69^a	OC(Cn1cncc1Br)c1ccc(Oc2ccc(Cl)nc2)nc1Cl (stereo not drawn) [I-17]	–
2.52^[a]	C#Cc1ccc(C(O)(Cn2cncc2C#N)C2(Cl)CC2)c(Cl)c1 (stereo not drawn) [I-370]	–
2.43^[a]	CC(O)(Cn1cncc1F)c1cnc(Oc2ccc(Cl)cc2F)cc1C(F)(F)F (stereo not drawn) [I-229]	–
2.80^[a]	N#Cc1cncn1CC(O)(c1ccc(Br)c(Cl)c1Cl)C1(F)CC1 (stereo not drawn) [I-681]	–
2.49^[a]	N#Cc1cncn1CC(O)(c1cc(F)c(F)cc1Cl)C1(Cl)CC1 (stereo not drawn) [I-584]	–
2.32^[a]	CC(O)(Cn1cncc1F)c1ccc(Oc2ccc(Cl)cc2)nc1C(F)(F)F (stereo not drawn) [I-257]	–
3.04^[a]	CC(O)(Cn1cncc1Cl)c1ccc(Oc2ccc(I)cc2)cc1Cl (stereo not drawn) [I-166]	–
3.74^[a]	N#Cc1cncn1CC(O)(c1ccc(C#CC2CCCC2)cc1F)C1(F)CC1 (stereo not drawn) [I-644]	–
2.18^[a]	N#Cc1cncn1CC(O)(CC1CC1)c1c(F)cccc1F (stereo not drawn) [I-513]	–
3.09^[a]	Cc1ccc(C)c(C#CC(O)(Cn2cncc2C#N)C2(Cl)CC2)c1 (stereo not drawn) [I-298]	–
3.04^[a]	N#Cc1cncn1CC(O)c1ccc(Oc2ccc(Br)cc2)cc1F (stereo not drawn) [I-48]	–
2.27^[a]	N#Cc1cncn1CC(O)(c1ccc(Cl)cc1)C1CC1 (stereo not drawn) [I-305]	–
1.29^[a]	Cc1ccccc1C(O)(Cn1cncc1C#N)C1(Cl)CC1 (stereo not drawn) [I-278]	–
3.59^[a]	COC(Cn1cncc1Br)c1ccc(Oc2ccc(Cl)cc2)cc1Br (stereo not drawn) [I-50]	–
2.95^[a]	CCCCC(O)(Cn1cncc1C#N)c1ccc(F)cc1Cl (stereo not drawn) [I-276]	–
2.18^[a]	OC(Cn1cncc1Cl)c1ccc(Oc2ccc(Cl)cc2)cc1 (stereo not drawn) [I-15]	–
2.59^[a]	N#Cc1cncn1CC(O)(C#Cc1cc(F)cc(F)c1)C1(Cl)CC1 (stereo not drawn) [I-319]	–
2.64^[a]	N#Cc1cncn1CC(O)(C#CC1CCCCC1)C1(F)CC1 (stereo not drawn) [I-543]	–
3.19^[a]	CCCCC(O)(Cn1cncc1C#N)c1ccc(Cl)cc1F (stereo not drawn) [I-263]	–
3.23^[a]	CCCCCC(O)(Cn1cncc1C#N)c1ccccc1C(F)(F)F (stereo not drawn) [I-346]	–

SMILES	LogP	other results
N#Cc1cncn1CC(O)(c1ccc(F)nc1F)C1(F)CC1 (stereo not drawn) [I-551]	1.79^[a]	–
